ChEMBL document CHEMBL1201862, “PubChem BioAssay data set” (2004)
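Grown in 96-well plates, cells were treated for 48 hours with each compound at five concentrations. Insufficient inhibition: endpoint recorded as highest concentration tested. Abbreviation: GI50, concentration required for 50% inhibition of growth.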 The source made the active and inactive calls. Cut-off read from the data, not from the text of the source: active = GI50 up to about 1.1 µM and inactive = higher.

Assays:
Assay in all cases: NCI tumour cell line growth inhibition, 48 h
MDA-MB-435 = tested on: MDA-MB-435
EKVX = tested on: EKVX
K562 = tested on: K562
HCT-15 = tested on: HCT-15
LOX IMVI = tested on: LOX IMVI
NCI-H226 = tested on: NCI-H226
SF-295 = tested on: SF-295
COLO 205 = tested on: COLO 205
CAKI-1 = tested on: CAKI-1
TK-10 = tested on: TK-10
UO-31 = tested on: UO-31
IGROV-1 = tested on: IGROV-1
SNB-75 = tested on: SNB-75
BT-549 = tested on: BT-549
T47D = tested on: T47D
SR = tested on: SR
NCI/ADR-RES = tested on: NCI/ADR-RES
M14 = tested on: M14
HCC 2998 = tested on: HCC 2998
M19-MEL = tested on: M19-MEL

SMILES	GI50 (MDA-MB-435)	GI50 (EKVX)	GI50 (K562)	GI50 (HCT-15) [µM]	GI50 (LOX IMVI)	GI50 (NCI-H226)	GI50 (SF-295)	GI50 (COLO 205)	GI50 (CAKI-1)	GI50 (TK-10)	GI50 (UO-31)	GI50 (IGROV-1)	GI50 (SNB-75)	GI50 (BT-549)	GI50 (T47D)	GI50 (SR)	GI50 (NCI/ADR-RES)	GI50 (M14)	GI50 (HCC 2998)	GI50 (M19-MEL)
CCOC(=O)c1c(NS(=O)(=O)c2ccc(Br)cc2)sc2c1CCCC2	19.4 µM (inactive)	4.52 µM (inactive)	5.79 µM (inactive)	7.35	13.6 µM (inactive)	3.66 µM (inactive)	3.92 µM (inactive)	13 µM (inactive)	10.2 µM (inactive)	10.8 µM (inactive)	3.51 µM (inactive)	4.21 µM (inactive)	4.11 µM (inactive)	7.59 µM (inactive)	6.61 µM (inactive)	19.7 µM (inactive)	1.57 µM (inactive)	4.8 µM (inactive)	16.7 µM (inactive)	–
COCc1nc2c(OC)c(-c3nc4ccc(N5CCN(C)CC5)nc4[nH]3)cc(OC)c2[nH]1	41.8 µM (inactive)	68.1 µM (inactive)	25.4 µM (inactive)	38.1	30.8 µM (inactive)	> 100 µM (inactive)	31.6 µM (inactive)	37.5 µM (inactive)	> 100 µM (inactive)	67.3 µM (inactive)	56.2 µM (inactive)	> 100 µM (inactive)	18 µM (inactive)	> 100 µM (inactive)	53 µM (inactive)	32.9 µM (inactive)	> 100 µM (inactive)	21.3 µM (inactive)	99.3 µM (inactive)	–
CN1CSC(=S)N(c2cccc(C(F)(F)F)c2)C1	22.5 µM (inactive)	25 µM (inactive)	24 µM (inactive)	18.7	20.2 µM (inactive)	24.3 µM (inactive)	21.8 µM (inactive)	19 µM (inactive)	26.4 µM (inactive)	28.6 µM (inactive)	26.4 µM (inactive)	18.7 µM (inactive)	42.2 µM (inactive)	20.7 µM (inactive)	31.7 µM (inactive)	23.4 µM (inactive)	26.9 µM (inactive)	17.9 µM (inactive)	18.6 µM (inactive)	–
O=C(CCC(=O)C1Cc2ccccc2C1=O)Nc1cccc(C(F)(F)F)c1 (configuration not stated)	–	> 100 µM (inactive)	> 100 µM (inactive)	> 100	> 100 µM (inactive)	> 100 µM (inactive)	> 100 µM (inactive)	> 100 µM (inactive)	> 100 µM (inactive)	> 100 µM (inactive)	> 100 µM (inactive)	> 100 µM (inactive)	–	–	–	–	–	> 100 µM (inactive)	> 100 µM (inactive)	> 100 µM (inactive)
CCOC(=O)c1[nH]cc(C)c1-c1ccn(-c2ccccc2)c1	41.9 µM (inactive)	27 µM (inactive)	21.1 µM (inactive)	54.5	41.8 µM (inactive)	51.5 µM (inactive)	56.4 µM (inactive)	51.9 µM (inactive)	> 100 µM (inactive)	27.5 µM (inactive)	25.8 µM (inactive)	14.9 µM (inactive)	13.3 µM (inactive)	43.4 µM (inactive)	35 µM (inactive)	15.6 µM (inactive)	36.2 µM (inactive)	48.2 µM (inactive)	41.9 µM (inactive)	–
COc1ccc2c(C(=O)c3cn(CCN4CCOCC4)c4ccccc34)cccc2c1	8.26 µM (inactive)	> 48.2 µM (inactive)	36.6 µM (inactive)	51.8	22.3 µM (inactive)	> 100 µM (inactive)	5.6 µM (inactive)	58.9 µM (inactive)	> 46 µM (inactive)	> 100 µM (inactive)	> 32 µM (inactive)	> 91 µM (inactive)	88.5 µM (inactive)	> 95.5 µM (inactive)	38 µM (inactive)	47.5 µM (inactive)	> 34.4 µM (inactive)	> 31.1 µM (inactive)	41.7 µM (inactive)	–
C[N+](C)(C)c1ccc(C(N)C(=O)O)cc1 (configuration not stated)	> 100 µM (inactive)	> 100 µM (inactive)	> 100 µM (inactive)	> 100	> 100 µM (inactive)	> 100 µM (inactive)	> 100 µM (inactive)	> 100 µM (inactive)	> 100 µM (inactive)	> 100 µM (inactive)	> 100 µM (inactive)	> 100 µM (inactive)	> 100 µM (inactive)	> 100 µM (inactive)	> 100 µM (inactive)	> 100 µM (inactive)	> 100 µM (inactive)	> 100 µM (inactive)	> 100 µM (inactive)	–
CCCCCCCCCCCCCCCCOc1ccc(/C=C/C2=[N+](CCCl)CCO2)cc1	> 100 µM (inactive)	> 100 µM (inactive)	77.3 µM (inactive)	> 100	> 100 µM (inactive)	> 100 µM (inactive)	55.8 µM (inactive)	67.6 µM (inactive)	> 100 µM (inactive)	47.1 µM (inactive)	> 100 µM (inactive)	61.2 µM (inactive)	> 100 µM (inactive)	> 100 µM (inactive)	> 100 µM (inactive)	30.1 µM (inactive)	56.1 µM (inactive)	> 100 µM (inactive)	> 100 µM (inactive)	–
